In paper PMC5700336, “The Gastrointestinal Tract Is a Major Source of Echinocandin Drug Resistance in a Murine Model of Candida glabrata Colonization and Systemic Dissemination” (Antimicrobial Agents and Chemotherapy, 2017):

Assays:
C. glabrata 2001 Δmsh2 [1] = experiment: Systemic breakthrough (blood and organs) after dexamethasone immunosuppression; format: in vivo, Candida glabrata; settings: day 15
Description: Six-week-old female outbred CF-1 immunocompetent mice (Charles River Laboratories) were treated (subcutaneously [s.c.]) with 320 mg/kg of piperacillin-tazobactam (PTZ; 8:1 ratio) beginning on day −2 to clear native intestinal bacterial flora. Daily PTZ treatment was maintained throughout the experiment (see Fig. 3A). On day 0, mice were inoculated via oral gavage with approximately 1.5 × 10^8 CFU of C. glabrata in 100 μl of saline. Mice were colonized with ATCC 2001 (CBS 138), clinical strains from the Perlin Laboratory collection, or mutator strain 2001 Δmsh2 ([19]). Fresh fecal samples were collected throughout the experiment to assess fungal burden in the GI tract. Daily administration of caspofungin (0.5, 5, or 20 mg/kg, i.p.), nikkomycin Z (100 mg/kg, oral) (Sigma), or saline (100 μl i.p.) was initiated on day 3 postinoculation and continued through sacrifice day (typically day 15). Caspofungin-resistant colony frequencies were determined through selection of fecal samples on yeast extract-peptone-dextrose (YPD) plates supplemented with caspofungin (2 μg/ml), PTZ (16 μg/ml), and chloramphenicol (20 μg/ml). The corticosteroid dexamethasone (DMX) was administered twice daily (100 mg/kg, i.p.) for 3 days (days 12 to 14) prior to euthanization (day 15; Fig. 3A). […]

C. glabrata ATCC 2001 = experiment: GI yeast burden after a single caspofungin dose; format: in vivo, Candida glabrata
C. glabrata 2001 Δmsh2 [2] = experiment: Murine C. glabrata GI colonization model: GI/fecal burden under daily treatment; format: in vivo, Candida glabrata
Description: Six-week-old female outbred CF-1 immunocompetent mice (Charles River Laboratories) were treated (subcutaneously [s.c.]) with 320 mg/kg of piperacillin-tazobactam (PTZ; 8:1 ratio) beginning on day −2 to clear native intestinal bacterial flora. Daily PTZ treatment was maintained throughout the experiment (see Fig. 3A). On day 0, mice were inoculated via oral gavage with approximately 1.5 × 10^8 CFU of C. glabrata in 100 μl of saline. Mice were colonized with ATCC 2001 (CBS 138), clinical strains from the Perlin Laboratory collection, or mutator strain 2001 Δmsh2 ([19]). Fresh fecal samples were collected throughout the experiment to assess fungal burden in the GI tract. Daily administration of caspofungin (0.5, 5, or 20 mg/kg, i.p.), nikkomycin Z (100 mg/kg, oral) (Sigma), or saline (100 μl i.p.) was initiated on day 3 postinoculation and continued through sacrifice day (typically day 15). Caspofungin-resistant colony frequencies were determined through selection of fecal samples on yeast extract-peptone-dextrose (YPD) plates supplemented with caspofungin (2 μg/ml), PTZ (16 μg/ml), and chloramphenicol (20 μg/ml). The corticosteroid dexamethasone (DMX) was administered twice daily (100 mg/kg, i.p.) for 3 days (days 12 to 14) prior to euthanization (day 15; Fig. 3A). Blood, kidneys, liver, spleen, and the gastrointestinal tract components were collected on day 15 (or earlier where indicated), homogenized, and plated onto YPD plates supplemented with chloramphenicol (75 μg/ml) and ampicillin (50 μg/ml) to determine CFU levels.

[3] = Single-dose pharmacokinetics in plasma and GI lumen contents; format: in vivo, mice; settings: LC-MS/MS; for large intestine mean Cmax / small intestine mean Cmax: lumen contents, mean of three mice
Description: Mice were colonized with ATCC 2001 and then treated (i.p.) once with 5 or 20 mg/kg caspofungin at time zero (2 days postinoculation). Three mice from each treatment group were sacrificed at each time point (0, 1, 2, 4, 8, 16, 24, and 48 h), and blood and small and large intestinal lumen contents (without intestinal walls) were collected. Fecal pellets were also collected from mice at 0, 4, 16, 24, and 48 h prior to sacrifice. Caspofungin levels in plasma and GI compartments were measured by liquid chromatography-tandem mass spectrometry (LC-MS/MS) in electrospray positive-ionization mode (ESI+) on an AB Sciex QTrap 4000 triple-quadrupole mass spectrometer combined with an Agilent 1260 high-performance liquid chromatograph (HPLC) using the Analyst software and multiple-reaction monitoring (MRM) of precursor/product transitions. The MRM transitions used were 547.50/538.40 for caspofungin and 455.4/165.2 for the internal standard verapamil. Chromatography was performed with an Agilent Zorbax SB-C8 column (2.1 by 30 mm; particle size, 3.5 μm) using a reverse-phase gradient elution. One-tenth percent formic acid in Milli-Q deionized water was used for the aqueous mobile phase and 0.1% formic acid in acetonitrile (ACN) for the organic mobile phase. Small and large intestinal contents were homogenized prior to extraction by combining 3 parts PBS buffer to 1 part GI tract contents. One milligram per milliliter dimethyl sulfoxide (DMSO) stock was serially diluted in 50/50 ACN-water to create standard curves and quality control spiking solutions. Twenty microliters of neat spiking solutions was added to 20 μl of drug-free mouse K2EDTA plasma (Bioreclamation) or GI tract homogenate, and extraction was performed by adding 200 μl of acetonitrile-methanol 50/50 protein precipitation solvent containing 10 ng/ml verapamil (Sigma). Extracts were vortexed for 5 min and centrifuged at 4,000 rpm for 5 min. The supernatants were analyzed by LC-MS. Sample analysis was accepted if the concentrations of the quality control samples were within 20% of the nominal concentration.

[4] = tested on: C. glabrata Δmsh2 mutant cells; experiment: In vitro caspofungin-resistant colony frequency after nikkomycin pretreatment; format: cell-based, Candida glabrata; settings: cells incubated with nikkomycin Z for 2 h prior to plating on agar with 2 μg/ml caspofungin
Description: FIG 4 Nikkomycin reduces C. glabrata caspofungin resistance and tolerance formation in vitro. (A) Caspofungin-resistant colony frequencies following selection on agar plates containing 2 μg/ml caspofungin. Cells were incubated with the indicated concentrations of nikkomycin Z for 2 h prior to plating. (B) Killing assay with strains grown in the presence or absence of 128 μg/ml nikkomycin Z (Nz) and increasing concentrations of caspofungin. The mean counts from three independent biological experiments ± standard deviations are shown.

[5] = tested on: C. glabrata wild-type and Δmsh2 cells; experiment: In vitro killing assay; format: cell-based, Candida glabrata; settings: 128 μg/ml nikkomycin Z, caspofungin 0.016 to 32 μg/ml, RPMI, 37°C, 24 h; three independent experiments
Description: Fresh 1-ml RPMI cultures (plus necessary amino acids) of C. glabrata (1 × 10^7 cells) were incubated at 37°C while shaking (165 rpm) for 24 h in 2-fold increasing concentrations (0.016 to 32 μg/ml) of caspofungin and in the presence (128 μg/ml) or absence of nikkomycin Z. After 24 h, 100 μl of the appropriate dilutions for each culture was plated onto YPD plates. CFU were counted 24 h after plating and data represented as the CFU per milliliter that survived at each concentration of drug.

[6] = single i.p. dose, both 5 and 20 mg/kg, lumen contents without intestinal walls, three mice per time point

SMILES | bloodstream infection (C. glabrata 2001 Δmsh2 [1]; caspofungin 5 mg/kg i.p. daily) | bloodstream infection (C. glabrata 2001 Δmsh2 [1]; caspofungin 20 mg/kg i.p. daily) | GI burden levels after single dose (C. glabrata ATCC 2001; single i.p. dose 5 mg/kg) | GI burden levels after single dose (C. glabrata ATCC 2001; single i.p. dose 20 mg/kg) | change in GI burden (C. glabrata 2001 Δmsh2 [2]; caspofungin 0.5 mg/kg i.p. daily) | change in GI burden (C. glabrata 2001 Δmsh2 [2]; caspofungin 5 mg/kg i.p. daily) | decrease in average GI burden (C. glabrata 2001 Δmsh2 [2]; caspofungin 20 mg/kg i.p. daily from day 3, following 5 days of treatment, 10 mice per group) [log] | GI burden after rebound to baseline (C. glabrata 2001 Δmsh2 [2]; caspofungin 20 mg/kg i.p. daily, by day 11) | decrease in fecal burden (C. glabrata 2001 Δmsh2 [2]; following 4 days of 20 mg/kg caspofungin) [log] | average decrease of colonization levels throughout the GI tract (C. glabrata 2001 Δmsh2 [2]; following 4 days of 20 mg/kg caspofungin, one mouse per condition) [log] | Tmax ([3]; mouse, plasma, ip, single i.p. dose, both 5 and 20 mg/kg, colonized CF-1 mice, three mice per time point, read-out: time of Cmax, plasma) [h] | large intestine mean Cmax ([3]; single i.p. dose 5 mg/kg) [ng/mL] | small intestine mean Cmax ([3]; single i.p. dose 5 mg/kg) [ng/mL] | large intestine mean Cmax ([3]; single i.p. dose 20 mg/kg) [ng/mL] | small intestine mean Cmax ([3]; single i.p. dose 20 mg/kg) [ng/mL] | time of Cmax, large intestine [3, 6] [h] | time of Cmax, small intestine [3, 6] [h] | effect on caspofungin-resistant colony frequency [4] | effect on killing by caspofungin [5]
CC[C@H](C)C[C@H](C)CCCCCCCCC(=O)N[C@H]1C[C@@H](O)[C@@H](NCCN)NC(=O)[C@@H]2[C@@H](O)CCN2C(=O)[C@H]([C@H](O)CCN)NC(=O)[C@H]([C@H](O)[C@@H](O)c2ccc(O)cc2)NC(=O)[C@@H]2C[C@@H](O)CN2C(=O)[C@H]([C@@H](C)O)NC1=O [caspofungin] | no isolates were recovered from the blood | no isolates were recovered from the blood | minimal decrease and faster recovery to baseline | decreased by 16 h and then returned to original baseline levels by 48 h | unchanged | unchanged | ~2.5 | ~1 × 10^8 CFU/g of stool | 2.8 | 2.7 | 2 | 3800 | 9100 | 36200 | 22200 | 8 | 4 | – | –
C[C@@H]([C@H](N)C(=O)N[C@H](C(=O)O)[C@H]1O[C@@H](n2ccc(=O)[nH]c2=O)[C@H](O)[C@@H]1O)[C@H](O)c1ccc(O)cn1 [nikkomycin, nikkomycin Z] | – | – | – | – | – | – | – | – | – | – | – | – | – | – | – | – | – | reduced the frequency of caspofungin-resistant mutants | increased the killing ability of caspofungin
